For experiment [1], the system named is HCN. As to the kind of experiment: Induction of rat HCN cell differentiation assessed as induction of neuronal reporter neuroD activity at 20 uM after 24 hrs by luciferase reporter gene assay. It counts as functional, cell-based.
In experiment [2] the test system is HCN. Kind of experiment: Induction of rat HCN cell differentiation assessed as induction of neuronal reporter neuroD activity by luciferase reporter gene assay. It is filed as functional, cell-based.

The source made the active and inactive calls. No cut-off for these calls is given here.

The values below come from ChEMBL document CHEMBL1221212, “Small-molecule activation of neuronal cell fate” (Nat Chem Biol, 2008).

Regarding `CNC(=O)c1cc(-c2cccs2)on1`, the result with HCN [1] was Active.
The same measure, in the same setting: the same measure for `O=C(NC1CCC1)c1cc(-c2cccs2)on1`: “Active”; for `O=C(NC1CCCCC1)c1cc(-c2cccs2)on1`: “Active”.
As for `Cc1cc(C(=O)Nc2sc3c(c2C#N)CCCC3)no1`, in the experiment on HCN [2], the Activity result was “Dose-dependent effect”.
